Source: article PMC5127787 (Frontiers in Microbiology, 2016)

Molecular target: RecA (Escherichia coli, UniProt P0A7G6)
Test: biochemical

Chain of RecA (P0A7G6 2-353): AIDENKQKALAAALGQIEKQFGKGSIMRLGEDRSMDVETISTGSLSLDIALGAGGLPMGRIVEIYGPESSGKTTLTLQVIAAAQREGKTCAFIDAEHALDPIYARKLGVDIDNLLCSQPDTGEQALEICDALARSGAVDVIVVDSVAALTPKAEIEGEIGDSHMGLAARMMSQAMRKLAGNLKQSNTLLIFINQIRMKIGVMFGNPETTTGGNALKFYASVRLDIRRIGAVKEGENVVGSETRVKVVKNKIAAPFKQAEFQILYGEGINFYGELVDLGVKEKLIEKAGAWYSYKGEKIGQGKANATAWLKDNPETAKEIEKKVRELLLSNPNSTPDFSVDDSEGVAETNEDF

CN1CCN(c2ccc(N3C(=O)C=CC3=O)cc2)CC1 [AHU3]
IC50: 7.72 µM
